A short description of assay [1]: Selectivity ratio of Ki(app) for recombinant bovine eNOS to Ki(app) for recombinant rat nNOS.
Assay [2] in a line: Selectivity ratio of Ki(app) for recombinant mouse iNOS to Ki(app) for recombinant rat nNOS.
Assay [3] addresses T1, Nitric oxide synthase 3 (Bos taurus, UniProt P29473).
T1 sequence (P29473 whole entry): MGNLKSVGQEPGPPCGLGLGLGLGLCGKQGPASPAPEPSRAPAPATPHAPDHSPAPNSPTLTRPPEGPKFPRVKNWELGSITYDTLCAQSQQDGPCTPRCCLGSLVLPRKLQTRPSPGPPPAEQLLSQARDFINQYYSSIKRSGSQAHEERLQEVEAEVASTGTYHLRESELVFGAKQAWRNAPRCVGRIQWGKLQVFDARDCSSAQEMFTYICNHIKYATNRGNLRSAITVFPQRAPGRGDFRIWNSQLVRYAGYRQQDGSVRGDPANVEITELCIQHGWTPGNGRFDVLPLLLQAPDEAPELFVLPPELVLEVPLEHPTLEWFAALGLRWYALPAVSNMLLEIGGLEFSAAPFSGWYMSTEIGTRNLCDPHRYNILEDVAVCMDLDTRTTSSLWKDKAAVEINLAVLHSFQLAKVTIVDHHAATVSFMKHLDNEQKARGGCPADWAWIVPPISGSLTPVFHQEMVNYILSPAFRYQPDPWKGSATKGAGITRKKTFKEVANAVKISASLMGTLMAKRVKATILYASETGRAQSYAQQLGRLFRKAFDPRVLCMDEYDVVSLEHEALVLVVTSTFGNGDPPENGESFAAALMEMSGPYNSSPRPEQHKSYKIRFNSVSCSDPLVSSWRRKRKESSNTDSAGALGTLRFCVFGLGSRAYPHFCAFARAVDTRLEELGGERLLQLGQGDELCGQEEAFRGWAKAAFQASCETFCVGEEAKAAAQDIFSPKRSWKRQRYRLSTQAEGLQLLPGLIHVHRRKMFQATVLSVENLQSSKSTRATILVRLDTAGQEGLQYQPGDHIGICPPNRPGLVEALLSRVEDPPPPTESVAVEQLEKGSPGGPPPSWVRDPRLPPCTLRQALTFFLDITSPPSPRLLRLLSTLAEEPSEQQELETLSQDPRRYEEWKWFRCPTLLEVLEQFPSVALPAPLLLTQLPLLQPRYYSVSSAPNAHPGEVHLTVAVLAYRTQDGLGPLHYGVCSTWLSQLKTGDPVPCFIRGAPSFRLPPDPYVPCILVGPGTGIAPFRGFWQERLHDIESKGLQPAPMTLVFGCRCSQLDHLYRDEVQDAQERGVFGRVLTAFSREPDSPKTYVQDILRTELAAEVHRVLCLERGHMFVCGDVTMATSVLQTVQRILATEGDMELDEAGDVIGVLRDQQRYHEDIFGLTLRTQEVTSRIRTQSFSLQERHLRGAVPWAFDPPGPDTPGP

Assay [4] has as its target Nitric oxide synthase 1 (Rattus norvegicus, UniProt P29476).
Assay [5] addresses T2, Nitric oxide synthase, inducible (Mus musculus, UniProt P29477).
T2 sequence (P29477 whole entry): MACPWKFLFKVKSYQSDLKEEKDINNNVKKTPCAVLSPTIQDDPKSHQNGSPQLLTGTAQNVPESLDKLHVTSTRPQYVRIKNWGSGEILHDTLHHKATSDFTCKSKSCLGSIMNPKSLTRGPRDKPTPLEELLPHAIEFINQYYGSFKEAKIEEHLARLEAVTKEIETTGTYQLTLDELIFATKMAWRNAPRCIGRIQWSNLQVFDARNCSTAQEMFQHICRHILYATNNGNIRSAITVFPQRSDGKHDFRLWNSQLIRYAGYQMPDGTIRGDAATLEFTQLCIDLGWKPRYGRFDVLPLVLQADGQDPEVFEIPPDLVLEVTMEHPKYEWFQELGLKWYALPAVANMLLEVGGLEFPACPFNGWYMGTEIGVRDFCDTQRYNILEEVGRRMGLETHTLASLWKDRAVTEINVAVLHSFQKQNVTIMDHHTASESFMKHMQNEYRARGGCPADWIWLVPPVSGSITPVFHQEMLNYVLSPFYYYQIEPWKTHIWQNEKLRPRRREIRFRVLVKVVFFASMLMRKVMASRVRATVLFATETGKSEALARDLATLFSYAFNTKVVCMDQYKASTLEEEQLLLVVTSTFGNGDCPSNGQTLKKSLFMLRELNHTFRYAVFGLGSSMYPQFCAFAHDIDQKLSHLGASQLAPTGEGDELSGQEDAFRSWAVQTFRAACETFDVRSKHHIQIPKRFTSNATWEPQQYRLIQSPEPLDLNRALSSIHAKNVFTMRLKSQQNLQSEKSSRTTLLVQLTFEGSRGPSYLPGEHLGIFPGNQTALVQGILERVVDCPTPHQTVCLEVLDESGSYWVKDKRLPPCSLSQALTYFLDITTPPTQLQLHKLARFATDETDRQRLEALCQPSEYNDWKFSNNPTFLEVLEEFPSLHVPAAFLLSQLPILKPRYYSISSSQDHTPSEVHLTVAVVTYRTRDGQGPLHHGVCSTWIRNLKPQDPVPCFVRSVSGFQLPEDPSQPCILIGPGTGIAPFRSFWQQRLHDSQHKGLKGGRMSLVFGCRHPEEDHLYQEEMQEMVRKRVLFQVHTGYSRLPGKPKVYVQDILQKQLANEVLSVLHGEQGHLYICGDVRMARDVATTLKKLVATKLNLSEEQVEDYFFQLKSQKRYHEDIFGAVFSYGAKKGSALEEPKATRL

pKi: −log10 of the molar value.

Chain of Nitric oxide synthase 1 (P29476 whole entry): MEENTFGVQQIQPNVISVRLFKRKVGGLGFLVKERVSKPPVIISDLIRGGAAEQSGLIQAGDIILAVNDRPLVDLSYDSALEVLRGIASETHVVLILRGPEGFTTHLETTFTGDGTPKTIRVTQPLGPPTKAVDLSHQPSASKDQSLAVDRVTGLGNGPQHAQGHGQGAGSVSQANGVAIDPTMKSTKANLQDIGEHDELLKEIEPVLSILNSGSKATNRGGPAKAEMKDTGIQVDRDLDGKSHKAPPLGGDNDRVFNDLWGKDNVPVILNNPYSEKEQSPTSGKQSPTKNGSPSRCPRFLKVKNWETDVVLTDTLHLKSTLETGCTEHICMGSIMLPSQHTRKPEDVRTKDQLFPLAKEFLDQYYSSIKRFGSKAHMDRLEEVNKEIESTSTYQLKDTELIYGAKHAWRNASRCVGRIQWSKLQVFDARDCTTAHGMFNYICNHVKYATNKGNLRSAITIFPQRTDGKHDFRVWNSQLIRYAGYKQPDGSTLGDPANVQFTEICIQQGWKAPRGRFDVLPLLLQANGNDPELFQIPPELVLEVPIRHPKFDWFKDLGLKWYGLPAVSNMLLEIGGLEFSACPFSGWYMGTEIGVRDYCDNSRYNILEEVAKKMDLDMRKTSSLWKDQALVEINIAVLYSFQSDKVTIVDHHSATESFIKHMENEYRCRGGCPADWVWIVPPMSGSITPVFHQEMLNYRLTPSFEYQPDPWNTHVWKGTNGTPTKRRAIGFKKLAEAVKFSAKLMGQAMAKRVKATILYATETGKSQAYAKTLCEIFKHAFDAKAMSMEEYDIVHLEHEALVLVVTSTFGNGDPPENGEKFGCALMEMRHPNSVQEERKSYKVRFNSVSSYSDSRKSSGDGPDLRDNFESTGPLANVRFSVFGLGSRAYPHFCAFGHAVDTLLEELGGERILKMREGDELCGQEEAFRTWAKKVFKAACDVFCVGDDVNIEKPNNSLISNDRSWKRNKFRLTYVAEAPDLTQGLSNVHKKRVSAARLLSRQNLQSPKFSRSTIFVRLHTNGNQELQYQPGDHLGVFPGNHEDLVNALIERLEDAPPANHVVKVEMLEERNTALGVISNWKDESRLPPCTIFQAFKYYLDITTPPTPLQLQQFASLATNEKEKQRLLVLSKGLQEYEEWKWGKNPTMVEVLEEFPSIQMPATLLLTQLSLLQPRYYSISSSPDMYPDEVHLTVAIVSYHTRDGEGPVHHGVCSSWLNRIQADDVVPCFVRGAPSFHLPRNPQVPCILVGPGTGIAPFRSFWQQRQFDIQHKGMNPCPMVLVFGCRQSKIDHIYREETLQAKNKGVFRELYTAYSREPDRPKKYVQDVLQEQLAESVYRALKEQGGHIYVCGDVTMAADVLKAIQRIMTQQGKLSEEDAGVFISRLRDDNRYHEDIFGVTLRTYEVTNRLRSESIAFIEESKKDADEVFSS

Turning to `N=C(Nc1cccc(OCCOc2cccc(NC(=N)c3cccs3)c2)c1)c1cccs1`, the Ratio Ki(app) was found to be 105 in assay [1] and 513 in assay [2].
On to `N=C(Nc1cccc(CCc2cccc(NC(=N)c3cccs3)c2)c1)c1cccs1`, for which the values for the pKi in assay [3], in assay [4] and in assay [5] were 4.18, 6.13 and 3.98, respectively. In addition, the values for the Ratio Ki(app) in assay [1] and in assay [2] were 89 and 141, respectively.
Take `NC(=Nc1cccc(Cc2cccc(N=C(N)c3cccs3)c2)c1)c1cccs1`: the pKi in assay [3] was 3.88; in assay [5], 4.10.
As for `NC(=Nc1cccc(OCCOc2cccc(N=C(N)c3cccs3)c2)c1)c1cccs1`, the pKi was 4.86 in assay [3], 6.89 in assay [4] and 4.18 in assay [5].
For the compound `N=C(Nc1cccc(OCCCOc2cccc(NC(=N)c3cccs3)c2)c1)c1cccs1`, the pKi in assay [3] was 5.40; in assay [4], 6.63; in assay [5] it was 4.90. In addition, the Ratio Ki(app) in assay [1] was found to be 17; in assay [2], 53.
On to `N=C(Nc1cccc(-c2cccc(NC(=N)c3cccs3)c2)c1)c1cccs1`, for which the pKi in assay [3] was 3.75; in assay [4], 6.10; in assay [5] it was 4.18. Moreover, the results for the Ratio Ki(app) in assay [1] and in assay [2] were 225 and 84, respectively.

The term pKi denotes −log10 of the Ki, conventionally taken in molar units.

For the origin of these results see ChEMBL document CHEMBL3124811, “Potent and selective double-headed thiophene-2-carboximidamide inhibitors of neuronal nitric oxide synthase for the treatment of melanoma” (J Med Chem, 2014).
